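Dose response: 5 concentrations. Exposure: 48 h. Format: 96-well plates. Endpoint: linear interpolation; highest concentration if not reached. The concentration for full growth arrest is given as TGI.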
How the values were obtained:
Test in all cases: growth of human tumour cells (NCI), 48 h
SNB-19 CNS = test system: SNB-19 CNS
786-0 renal = test system: 786-0 renal
HOP-92 NSCLC = test system: HOP-92 NSCLC
NCI-H23 lung = test system: NCI-H23 lung
SF-295 CNS = test system: SF-295 CNS
M14 melanoma = test system: M14 melanoma
A498 renal = test system: A498 renal
IGROV1 ovarian = test system: IGROV1 ovarian
EKVX NSCLC = test system: EKVX NSCLC
SNB-75 CNS = test system: SNB-75 CNS
COLO 205 colon = test system: COLO 205 colon
OVCAR-8 ovarian = test system: OVCAR-8 ovarian
OVCAR-3 ovarian = test system: OVCAR-3 ovarian
U251 CNS = test system: U251 CNS
HCC-2998 colon = test system: HCC-2998 colon
UACC-62 melanoma = test system: UACC-62 melanoma
HL-60(TB) leukemia = test system: HL-60(TB) leukemia
NCI-H226 lung = test system: NCI-H226 lung
SN12C renal = test system: SN12C renal
CCRF-CEM leukemia = test system: CCRF-CEM leukemia

Compound	TGI (SNB-19 CNS) [µM]	TGI (786-0 renal) [µM]	TGI (HOP-92 NSCLC) [µM]	TGI (NCI-H23 lung) [µM]	TGI (SF-295 CNS) [µM]	TGI (M14 melanoma) [µM]	TGI (A498 renal) [µM]	TGI (IGROV1 ovarian) [µM]	TGI (EKVX NSCLC) [µM]	TGI (SNB-75 CNS) [µM]	TGI (COLO 205 colon) [µM]	TGI (OVCAR-8 ovarian) [µM]	TGI (OVCAR-3 ovarian) [µM]	TGI (U251 CNS) [µM]	TGI (HCC-2998 colon) [µM]	TGI (UACC-62 melanoma) [µM]	TGI (HL-60(TB) leukemia) [µM]	TGI (NCI-H226 lung) [µM]	TGI (SN12C renal) [µM]	TGI (CCRF-CEM leukemia) [µM]
CCOP(=O)(Nc1ccc(-c2ccc(N)cc2)cc1)OCC	> 100	> 100	> 100	> 100	> 100	> 100	> 100	> 100	> 100	> 100	> 100	> 100	> 100	> 100	> 100	> 100	–	–	–	–
Cc1cc2c(=O)c(C)n[nH]c2c(C#N)c1C	> 100	> 100	> 100	> 100	> 100	–	–	> 100	> 100	> 100	> 100	> 100	> 100	> 100	> 100	> 100	> 100	> 100	> 100	> 100
CC(C)(C)OC(=O)NCCC1CNc2ccccc21 (configuration not stated)	> 100	> 100	> 100	> 100	> 100	> 100	> 100	> 100	> 100	> 100	> 100	> 100	> 100	> 100	> 100	> 100	–	–	–	–
N#Cc1ccc(OCCSCCCCCCCCCCSCCOc2ccc(C#N)cc2)cc1	–	> 100	–	> 100	> 100	> 100	> 100	> 100	> 100	> 100	> 100	> 100	> 100	> 100	> 100	> 100	> 100	> 100	> 100	> 100
CC(C)=NOC(=O)OC[C@H]1O[C@@H](n2cnc3c(N)ncnc32)C(O)C1O (some centres not stated)	> 100	> 100	–	> 100	> 100	> 100	> 100	> 100	> 100	> 100	> 100	> 100	> 100	> 100	> 100	–	> 100	> 100	> 100	> 100
CS(=O)(=O)NNS(=O)(=O)c1ccc(F)cc1	> 100	> 100	–	> 100	> 100	> 100	> 100	> 100	> 100	> 100	> 100	> 100	> 100	> 100	> 100	> 100	> 100	> 100	> 100	> 100
COC(=O)/C(=N\NC(N)=O)C(C#N)c1ccccc1 (configuration not stated)	> 100	> 100	–	> 100	> 100	> 100	> 100	–	> 100	> 100	> 100	> 100	> 100	> 100	> 100	> 100	> 100	> 100	> 100	> 100
O=C1c2cn[nH]c2N=C(Nc2ccccc2)C1N=Cc1ccc([N+](=O)[O-])cc1 (configuration not stated)	> 10	> 10	–	> 10	> 10	> 10	–	–	> 10	> 10	–	> 10	> 10	> 10	> 10	–	> 10	> 10	> 10	> 10
O=C(CC1(O)C(=O)Nc2ccc([N+](=O)[O-])cc21)c1ccncc1 (configuration not stated)	> 100	> 100	–	73.1	> 100	> 100	> 100	–	> 100	98.8	> 100	> 100	65	66.1	> 100	> 100	56.5	> 100	> 100	> 100
CC(=O)Nn1cnc(C(=N)C#N)c1N	> 100	> 100	–	> 100	> 100	> 100	> 100	> 100	> 100	> 100	> 100	> 100	> 100	> 100	> 100	> 100	> 100	> 100	> 100	> 100
CCc1ccc(Cc2ccc(CC)c(NC(=O)C(=O)C3NC(=S)NC3=O)c2CC)c(CC)c1NC(=O)C(=O)C1NC(=S)NC1=O (configuration not stated)	> 100	> 100	> 100	> 100	–	> 100	> 100	> 100	> 100	> 100	> 100	> 100	> 100	> 100	> 100	> 100	> 100	–	–	> 100
O=C(Nc1ccccc1)c1cc(S(=O)(=O)N2CCNC2=O)c(S)cc1Cl	> 100	> 100	> 100	> 100	> 100	> 100	> 100	> 100	> 100	> 100	> 100	> 100	> 100	> 100	> 100	> 100	> 100	–	> 100	> 100
O=c1c(C(c2ccc([N+](=O)[O-])cc2)c2c(O)c3ccccc3n(-c3ccccc3)c2=O)c(O)c2ccccc2n1-c1ccccc1	> 100	26.9	29.3	34.3	33.3	–	–	> 100	59.7	–	63.4	73.9	70.5	75.2	29.1	14.8	–	74.8	> 100	13.4
Nc1ccn(CCOC(c2ccccc2)P(=O)(O)O)c(=O)n1 (configuration not stated)	> 100	> 100	–	> 100	> 100	–	> 100	> 100	> 100	> 100	> 100	> 100	> 100	> 100	> 100	> 100	> 100	> 100	> 100	> 100
C1=CCC[C@@H]2CN3CCCC/C=C\CCCC[C@H]4C[C@H](CN(CCCCCCCC1)C4)[C@H]2CC3	22.2	15.9	–	34.5	16.4	18.7	30.3	18	21.6	16.5	16	17.5	15.2	15.4	14.4	16.9	28.4	> 50	21	34.9
CCOC(=O)/C(=C\c1cn(C(C)=O)c2ccccc12)P(C)(=O)OCC (configuration not stated)	> 100	> 100	66.8	–	> 100	> 100	> 100	> 100	> 100	36.5	> 100	> 100	> 100	> 100	94.3	> 100	> 100	–	> 100	> 100
COc1ccc(-c2cc(=O)c3cc(Cl)ccc3[nH]2)cc1	> 100	> 100	> 100	> 100	> 100	> 100	–	> 100	> 100	> 100	> 100	> 100	> 100	–	> 100	> 100	> 100	> 100	> 100	> 100
CNC(=O)N1CN(c2ccccc2)C2(CCN(Cc3ccccc3)CC2)C1=O	> 100	> 100	–	> 100	> 100	> 100	–	> 100	> 100	> 100	> 100	> 100	> 100	> 100	39.8	> 100	> 100	> 100	> 100	> 100
Cn1ccc(=NS(=O)(=O)c2ccccc2)cc1	> 100	> 100	> 100	> 100	> 100	–	> 100	> 100	> 100	> 100	> 100	> 100	> 100	> 100	> 100	–	> 100	–	–	> 100
CSc1nc(NC2OCC(OC(C)=O)C(OC(C)=O)C2OC(C)=O)c2c(n1)OCC2=O (configuration not stated)	> 100	> 100	–	> 100	> 100	> 100	> 100	> 100	> 100	> 100	> 100	> 100	> 100	> 100	> 100	> 100	> 100	> 100	> 100	> 100
Cc1nn(C(=O)Cc2ccccc2)c2c1C(c1ccc([N+](=O)[O-])cc1)SC(N)=N2 (configuration not stated)	–	> 100	–	> 100	> 100	> 100	> 100	> 100	> 100	–	> 100	> 100	–	–	> 100	> 100	> 100	–	> 100	> 100
O=C1CCCCCCCCCCC1CN1CCOCC1 (configuration not stated)	> 100	> 100	> 100	> 100	> 100	> 100	–	> 100	> 100	–	> 100	> 100	> 100	> 100	> 100	> 100	> 100	> 100	> 100	> 100
COc1ccccc1/C=N/Nc1nnc2c3ccccc3c3ncccc3c2n1	> 100	90.6	52.8	> 100	31.8	> 100	–	> 100	> 100	49.3	> 100	> 100	> 100	> 100	> 100	> 100	> 100	–	> 100	78
O=[N+]([O-])c1cccc(C2=NN(c3ccccc3)C3c4ccccc4OCC23)c1 (configuration not stated)	> 100	> 100	> 100	> 100	> 100	–	> 100	> 100	> 100	> 100	> 100	> 100	> 100	> 100	> 100	–	> 100	–	–	> 100
CN(C)/C=C/c1c2c(nc3ccccc13)C(=O)c1cccnc1C2=O	1.95	1.33	11.5	0.42	1.62	0.597	2.31	4.16	22.9	4.66	5.55	3.2	1.09	5.9	2.6	1.25	2.53	–	2.57	9.28
O=C(O[C@H]1[C@@H]2C=CO[C@@H](OC3OC(CO)C(O)C(O)C3O)[C@@H]2[C@@]2(CO)O[C@@H]12)c1ccc(O)c(O)c1 (some centres not stated)	> 100	> 100	> 100	> 100	> 100	> 100	> 100	> 100	> 100	> 100	> 100	> 100	> 100	> 100	> 100	> 100	> 100	–	> 100	> 100
